Test results published in PMC11336422, “Oligoarginine peptide structure and its effect on cell penetration in ocular drug delivery” (Heliyon, 2024).
Where two headings read alike, the source gives them in different places. Peptide text beside a SMILES is read from it.

Experiments:
[1] = tested on: Escherichia coli (E. coli) ATCC25922; type: cell-based
Procedure: (§1) A broth microdilution assay was performed to determine the minimum inhibitory concentration (MIC) for the oligoarginine peptides. Escherichia coli (E. coli) ATCC25922 and Staphylococcus aureus (S. aureus) ATCC6538 were used as model organisms for Gram-negative and Gram-positive bacteria, respectively. Both strains were cultured in LB broth for ∼18 h overnight at 37 °C and shaking set to 180 RPM. The culture was diluted to obtain a 0.01 optical density (OD) bacterial suspension in LB. Using a 96-well plate, oligoarginine concentrations ranging from 1 mM to 0.001 mM were obtained, and each peptide concentration was tested against both bacterial strains. The bacteria were incubated overnight at 37 °C for 18 h, and the lowest concentration of the treatment with no visible bacterial growth was recorded as the MIC of the respective oligoarginine treatment.

[2] = tested on: Staphylococcus aureus (S. aureus) ATCC6538; type: cell-based
Procedure: as §1

[3] = LB broth, 1 mM to 0.001 mM, 18 h at 37 °C, no visible growth, average ± SEM, n = 9

E. coli MIC ([1]; ATCC25922, 18 h) | S. aureus MIC ([2]; ATCC6538, 18 h) | SMILES | E. coli MIC [1, 3] | S. aureus MIC [2, 3]
> 1 mM | > 1 mM | N=C(N)NCCC[C@H](NC(=O)[C@H](CCCNC(=N)N)NC(=O)[C@H](CCCNC(=N)N)NC(=O)[C@H](CCCNC(=N)N)NC(=O)[C@H](CCCNC(=N)N)NC(=O)[C@@H](N)CCCNC(=N)N)C(=O)O [R6] | – | –
– | – | N=C(N)NCCC[C@H](NC(=O)[C@H](CCCNC(=N)N)NC(=O)[C@H](CCCNC(=N)N)NC(=O)[C@H](CCCNC(=N)N)NC(=O)[C@H](CCCNC(=N)N)NC(=O)[C@H](CCCNC(=N)N)NC(=O)[C@H](CCCNC(=N)N)NC(=O)[C@H](CCCNC(=N)N)NC(=O)[C@H](CCCNC(=N)N)NC(=O)[C@H](CCCNC(=N)N)NC(=O)[C@H](CCCNC(=N)N)NC(=O)[C@@H](N)CCCNC(=N)N)C(=O)O [R12] | 0.94 ± 0.16 mM | 0.61 ± 0.22 mM
> 1 mM | 1 mM | N=C(N)NCCC[C@H](NC(=O)[C@H](CCCNC(=N)N)NC(=O)[C@H](CCCNC(=N)N)NC(=O)[C@H](CCCNC(=N)N)NC(=O)[C@H](CCCNC(=N)N)NC(=O)[C@H](CCCNC(=N)N)NC(=O)[C@H](CCCNC(=N)N)NC(=O)[C@H](CCCNC(=N)N)NC(=O)[C@@H](N)CCCNC(=N)N)C(=O)O [R9] | – | –
> 1 mM | > 1 mM | N=C(N)NCCC[C@H](NC(=O)[C@H](CCCNC(=N)N)NC(=O)[C@@H](N)CCCNC(=N)N)C(=O)O [R3] (H-Arg-Arg-Arg-OH) | – | –
